Data published in US5380715A, “Ap4 A as a hypotensive agent” (Fujirebio Inc., priority 1992, dated 1995).
“Also recorded” adds a separate entry of the source.

Experiments:
rats [1] = assay: Recovery of blood pressure after gradual hypotension in rats; assay type: in vivo, male SD rats; conditions: rat
Experimental: FIG. 1 is a graph showing the recovery of the blood pressure of rats anesthetized with enflurane with time, when each of Ap4A ( ), PG E1 ( ) and nitroglycerin ( ) was used as a test drug to attain gradual hypotension, with the blood pressure before the administration of each test drug being set 100% for reference.
The recovery of blood pressure after gradual hypotension by use of each of Ap4A, PG E1 and nitroglycerin was also tested.
The control values were obtained before the administration of each test drug. Each test drug was then administered using a syringe in a dose-dependent manner for 15 minutes. The percentage (%) of the decrease of blood pressure was determined when stabilized. Changes in heart rate (H.R.) at the administration of each test drug were measured. Furthermore,the recovery of mean blood pressure after intravenous infusion of each test drug was also determined from the decrease in heart rate and the blood pressure at a maximum dose of each test drug.
In a test similar to the above, each of Ap4A, PG E1, and nitroglycerin was administered to rats, so that about 65% fall in blood pressure, about 55% fall in blood pressure, and about 35% fall in blood pressure were stepwise attained. With respect to each agent, the recovery of blood pressure was tested.

blood pressure = assay: Gradual hypotension under halothane or urethane + α-chloralose anesthesia; assay type: in vivo; conditions: halothane anesthesia; urethane (0.5 g/kg) + α-chloralose (80 mg/kg) anesthesia; words
[2] = words; cited from earlier work
[3] = tested on: human platelet-aggregation; conditions: words; cited from earlier work
[4] = tested on: rabbit mesenteric arteries; conditions: words; cited from earlier work
rats [5] = assay: Effects on cerebral blood flow, blood pressure and heart rate in anesthetized rats; assay type: in vivo, male SD rats; conditions: rat
Experimental: Male SD rats (Charles River Japan Inc.) were anesthetized with intravenous urethane (0.5 g/kg)+α-chloralose (80 mg/kg).
A femoral artery was catheterized to monitor the blood pressure and heart rate, while a femoral vein was catheterized for the aministration of each of the test drugs.
The head of each rat was fixed to a brain position fixing device and a hole was made at a top portion of the cranium. A laser blood flow probe was mounted on the cranium so as to touch the surface of the cerebral cortex through the hole, whereby the cerebral blood flow thereof was measured. A predetermined amount of Ap4A was applied by bolus injection and by infusion.

Structure (SMILES): Nc1ncnc2c1ncn2[C@@H]1O[C@H](COP(=O)(O)OP(=O)(O)OP(=O)(O)OP(=O)(O)OC[C@H]2O[C@@H](n3cnc4c(N)ncnc43)[C@H](O)[C@@H]2O)[C@@H](O)[C@H]1O [Ap4A, diadenosine 5',5'"-p^1,p^4 -tetraphosphate]
- recovered blood pressure (before administration = 100%) (rats [1]; 1 minute): about 70%
- recovered blood pressure (before administration = 100%) (rats [1]; 5 minutes): about 90%
- recovered blood pressure (before administration = 100%) (rats [1]; 10 minutes): 100%
- fall in blood pressure attained before recovery (rats [1]; stepwise): about 65%
- rapidness of the recovery of blood pressure (rats [1]; order in words): Ap4A>PG E1 >nitroglycerin
- rebound hypertension (rats [1]; result in words): without rebound hypertension
- gradual hypotensive effect (blood pressure): almost the same gradual hypotensive effect
- arrhythmic effect [2]: an arrhythmic effect
- ADP-induced human platelet-aggregation inhibitory effect [3]: ADP-induced human platelet-aggregation inhibitory effect
- vasodilating effect [4]: a vasodilating effect of rabbit mesenteric arteries
- B.P. Δ% (rats [5]; bolus injection 0.1 μg/kg): 0%
- C.B.F. Δ% (rats [5]; bolus injection 0.1 μg/kg): 2.7%
- H.R. Δ% (rats [5]; bolus injection 0.1 μg/kg): 4.0%
- B.P. Δ% (rats [5]; bolus injection 0.3 μg/kg): 0%
- C.B.F. Δ% (rats [5]; bolus injection 0.3 μg/kg): 7.9%
- H.R. Δ% (rats [5]; bolus injection 0.3 μg/kg): -7.0%
- B.P. Δ% (rats [5]; bolus injection 1 μg/kg): 5.0 ± 2.9%
- C.B.F. Δ% (rats [5]; bolus injection 1 μg/kg): 9.3 ± 2.5%
- H.R. Δ% (rats [5]; bolus injection 1 μg/kg): 10.3 ± 10.1%
- B.P. Δ% (rats [5]; bolus injection 3 μg/kg): -6.2 ± 5.0%
- C.B.F. Δ% (rats [5]; bolus injection 3 μg/kg): 10.0 ± 2.0%
- H.R. Δ% (rats [5]; bolus injection 3 μg/kg): 4.6 ± 3.4%
- B.P. Δ% (rats [5]; bolus injection 10 μg/kg): -9.9 ± 4.6%
- C.B.F. Δ% (rats [5]; bolus injection 10 μg/kg): 21.7 ± 6.0%
- H.R. Δ% (rats [5]; bolus injection 10 μg/kg): 3.2 ± 2.0%
- B.P. Δ% (rats [5]; bolus injection 30 μg/kg): -23.2 ± 3.5%
- C.B.F. Δ% (rats [5]; bolus injection 30 μg/kg): 16.8 ± 3.5%
- H.R. Δ% (rats [5]; bolus injection 30 μg/kg): 6.4 ± 1.2%
- B.P. Δ% (rats [5]; bolus injection 100 μg/kg): -34.4 ± 2.5%
- C.B.F. Δ% (rats [5]; bolus injection 100 μg/kg): 15.8 ± 4.0%
- H.R. Δ% (rats [5]; bolus injection 100 μg/kg): 7.4 ± 3.5%
- B.P. Δ% (rats [5]; bolus injection 300 μg/kg): -40.5 ± 5.2%
- C.B.F. Δ% (rats [5]; bolus injection 300 μg/kg): 9.8 ± 4.0%
- H.R. Δ% (rats [5]; bolus injection 300 μg/kg): 10.9 ± 4.5%
- B.P. Δ% (rats [5]; bolus injection 1 mg/kg): -50.4 ± 1.4%
- C.B.F. Δ% (rats [5]; bolus injection 1 mg/kg): 8.5 ± 3.4%
- H.R. Δ% (rats [5]; bolus injection 1 mg/kg): 7.4 ± 6.0%
- B.P. Δ% (rats [5]; bolus injection 3 mg/kg): -54.0 ± 2.5%
- C.B.F. Δ% (rats [5]; bolus injection 3 mg/kg): 23.7 ± 9.3%
- H.R. Δ% (rats [5]; bolus injection 3 mg/kg): 6.2 ± 21.1%
- B.P. Δ% (rats [5]; bolus injection 10 mg/kg): -63.5 ± 5.6%
- C.B.F. Δ% (rats [5]; bolus injection 10 mg/kg): 46.3 ± 11.5%
- H.R. Δ% (rats [5]; bolus injection 10 mg/kg): -78.8 ± 2.7%
- B.P. Δ% (rats [5]; bolus injection 30 mg/kg): -60.7 ± 7.0%
- C.B.F. Δ% (rats [5]; bolus injection 30 mg/kg): 34.0 ± 16.9%
- cerebral blood flow (rats [5]; bolus injection, result in words): improved by bolus injection of Ap4A
- increase in C.B.F. (rats [5]; bolus, when about 20-40% fall in blood pressure): 10-20%
- cerebral blood flow (rats [5]; continuous administration, result in words (FIG. 2)): The same effects were also observed in the continuous administration of Ap4A; also recorded: Cerebral blood flow was increased during continuous administration of Ap4A
